Results taken from patent publication US20220389009A1, “SUBSTITUTED 1,6-NAPHTHYRIDINE INHIBITORS OF CDK5” (Goldfinch Bio, Inc., priority 2019, published 2022).

Legend:
CDK2/CycA2 = CDK2/CycA2 (Homo sapiens, UniProt P24941); test: CDK2 mobility shift assay (enzymatic activity of CDK2/CycA2); type: biochemical; settings: 1.25 nM CDK2/CycA2, 37 μM ATP, FL Peptide 18, 120 min at room temperature; read-out: CDK2 IC50
How it was run: (§1)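 Phosphorylation of 1.5 μM fluorescent peptide was read by microfluidic mobility shift and fitted to IC50 (4-parameter), normalized to no-compound and no-enzyme controls. CDK5/p25 ran at 0.154 nM with […] ATP for 60 min, using peptide 29. CDK2/CycA2 ran at 1.25 nM with 37 μM ATP for 120 min, using peptide 18. Both included a 30-min compound preincubation in pH 7.5 buffer.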

CDK5/p25 = CDK5/p25 (Homo sapiens, UniProt Q00535); test: CDK5 mobility shift assay (enzymatic activity of CDK5/p25); type: biochemical; settings: for IC50: 0.154 nM CDK5/p25, FL peptide 29, 60 min at room temperature, read-out: CDK5 IC50; for CDK5/CDK2 specificity: fold more active against CDK5 than CDK2
Sequence of CDK5/p25 (Q00535 whole entry): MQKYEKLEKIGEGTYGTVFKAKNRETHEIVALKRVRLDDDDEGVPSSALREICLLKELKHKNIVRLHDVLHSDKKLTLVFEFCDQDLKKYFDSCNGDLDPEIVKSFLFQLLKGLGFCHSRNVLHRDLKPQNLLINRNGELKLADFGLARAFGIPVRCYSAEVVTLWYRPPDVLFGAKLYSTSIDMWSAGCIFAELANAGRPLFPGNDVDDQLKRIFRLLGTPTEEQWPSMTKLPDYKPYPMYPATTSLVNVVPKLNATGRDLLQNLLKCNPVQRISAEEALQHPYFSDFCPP
Sequence of CDK5/p25 (Q15078 99-307 partner limits assumed): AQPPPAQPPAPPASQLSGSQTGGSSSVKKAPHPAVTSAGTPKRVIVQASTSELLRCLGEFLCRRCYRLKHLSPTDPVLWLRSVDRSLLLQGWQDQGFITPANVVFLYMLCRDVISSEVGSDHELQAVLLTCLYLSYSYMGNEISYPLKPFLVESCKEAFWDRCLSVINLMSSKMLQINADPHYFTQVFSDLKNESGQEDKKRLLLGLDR
How it was run: as §1

IC50 (CDK2/CycA2) [nM] | IC50 (CDK5/p25) [nM] | SMILES | CDK5/CDK2 specificity (CDK5/p25)
10 to 100 | < 10 | CN1CCC(S(=O)(=O)c2ccc3cnc(Nc4cccc(C#CC(C)(C)O)c4)cc3n2)CC1 [Compound 256] | +++ (greater than 100-fold more active against CDK5 than CDK2)
10 to 100 | < 10 | NC(=O)c1cccc(Nc2cc3nc(SC4CCNCC4)ccc3cn2)c1 [Compound 134, 3-[[2-(piperidin-4-ylsulfanyl)-1,6-naphthyridin-7-yl]amino]benzamide] | ++ (greater than 10-fold and less than or equal to 100-fold more active against CDK5 than CDK2)
10 to 100 | < 10 | CN1CCC(S(=O)(=O)c2ccc3cnc(Nc4cccc(N5CCOC5=O)c4)cc3n2)CC1 [Compound 284] | ++ (greater than 10-fold and less than or equal to 100-fold more active against CDK5 than CDK2)
> 1000 | 100 to 1000 | NC1CCCN(C(=O)c2ccc3cnc(Nc4ccc(-n5cccn5)cc4F)cc3n2)C1 (stereo not drawn) [Compound 242, 2-(3-aminopiperidine-1-carbonyl)-N-[2-fluoro-4-(pyrazol-1-yl)phenyl]-1,6-naphthyridin-7-amine] | ++ (greater than 10-fold and less than or equal to 100-fold more active against CDK5 than CDK2)
> 1000 | 10 to 100 | CN1CCC(C(C)(F)c2ccc3cnc(Nc4ccc(-n5cccn5)cc4F)cc3n2)CC1 (single isomer, unassigned) [Compound 363, 2-[1-fluoro-1-(1-methylpiperidin-4-yl)ethyl]-N-[2-fluoro-4-(pyrazol-1-yl)phenyl]-1,6-naphthyridin-7-amine] | ++ (greater than 10-fold and less than or equal to 100-fold more active against CDK5 than CDK2)
100 to 1000 | < 10 | O=S(=O)(c1ccc2cnc(Nc3ccc(-n4ccc(CO)n4)cc3F)cc2n1)C1CCN(CC(O)CO)CC1 (stereo not drawn) [Compound 249] | ++ (greater than 10-fold and less than or equal to 100-fold more active against CDK5 than CDK2)
10 to 100 | < 10 | Cc1ccc(F)c(Nc2cc3nc(C(O)(C4CCN(C)CC4)C(F)(F)F)ccc3cn2)c1 (stereo not drawn) [Compound 394] | ++ (greater than 10-fold and less than or equal to 100-fold more active against CDK5 than CDK2)
> 1000 | 10 to 100 | OCc1ccn(-c2ccc(Nc3cc4nc(C5(C6CCNCC6)CC5)ccc4cn3)c(F)c2)n1 [Compound 316, [1-[3-fluoro-4-([2-[1-(piperidin-4-yl)cyclopropyl]-1,6-naphthyridin-7-yl]amino)phenyl]pyrazol-3-yl]methanol] | ++ (greater than 10-fold and less than or equal to 100-fold more active against CDK5 than CDK2)
> 1000 | 10 to 100 | CC(C)(O)c1ccn(-c2ccc(Nc3cc4nc(S(=O)(=O)C5CCN(CC6COC6)CC5)ccc4cn3)c(F)c2)n1 [Compound 340] | ++ (greater than 10-fold and less than or equal to 100-fold more active against CDK5 than CDK2)
100 to 1000 | 100 to 1000 | Nc1cccc(C(=O)Nc2cc3nc(SC4CCNCC4)ccc3cn2)c1 [Compound 136, 3-amino-N-[2-(piperidin-4-ylsulfanyl)-1,6-naphthyridin-7-yl]benzamide] | + (10-fold or less more active against CDK5 than CDK2)
100 to 1000 | 10 to 100 | O=S(=O)(c1ccc2cnc(Nc3ccc(-n4ccc(CO)n4)cc3F)cc2n1)C1CCNCC1 [Compound 123, [1-(3-fluoro-4-[[2-(piperidine-4-sulfonyl)-1,6-naphthyridin-7-yl]amino]phenyl)pyrazol-3-yl]methanol] | ++ (greater than 10-fold and less than or equal to 100-fold more active against CDK5 than CDK2)
10 to 100 | < 10 | CN1CCC(C(C)(O)c2ccc3cnc(Nc4ccc(-c5cccnc5)cc4F)cc3n2)CC1 (stereo not drawn) [Compound 329] | ++ (greater than 10-fold and less than or equal to 100-fold more active against CDK5 than CDK2)
10 to 100 | < 10 | CN1CCC(C(C)(O)c2ccc3cnc(Nc4ccc(CN5CCOCC5)cc4F)cc3n2)CC1 (stereo not drawn) [Compound 353] | ++ (greater than 10-fold and less than or equal to 100-fold more active against CDK5 than CDK2)
> 1000 | 100 to 1000 | Cc1ccc(F)c(Nc2cc3nc(C(O)(C4CCN(C)CC4)C(F)(F)F)ccc3cn2)c1 (stereo not drawn) [Compound 390] | ++ (greater than 10-fold and less than or equal to 100-fold more active against CDK5 than CDK2)
100 to 1000 | 10 to 100 | O=S(=O)(c1ccc2cnc(Nc3ccc(-n4ccc(CO)n4)cc3F)cc2n1)C1CCN(CC(O)CO)CC1 (stereo not drawn) [Compound 253] | ++ (greater than 10-fold and less than or equal to 100-fold more active against CDK5 than CDK2)
> 1000 | 10 to 100 | CN1CCC(C(O)c2ccc3cnc(Nc4ccc(-n5ccc(CO)n5)cc4F)cc3n2)CC1 (single isomer, unassigned) [Compound 247, [7-([2-fluoro-4-[3-(hydroxymethyl)pyrazol-1-yl]phenyl]amino)-1,6-naphthyridin-2-yl](1-methylpiperidin-4-yl)methanol] | ++ (greater than 10-fold and less than or equal to 100-fold more active against CDK5 than CDK2)
> 1000 | 10 to 100 | CC(c1ccc2cnc(Nc3ccc(-c4cccnc4)cc3F)cc2n1)C1CCN(C)CC1 (stereo not drawn) [Compound 314] | ++ (greater than 10-fold and less than or equal to 100-fold more active against CDK5 than CDK2)
100 to 1000 | < 10 | CN1CCC(C(C)(O)c2ccc3cnc(Nc4cccc(N5CCOCC5)c4)cc3n2)CC1 (stereo not drawn) [Compound 348] | ++ (greater than 10-fold and less than or equal to 100-fold more active against CDK5 than CDK2)
